Assay results published in publication doi:10.1101/2022.07.06.498982v1 (biorxiv, 2022).

Legend:
[1] = biological target: soluble recombinant mouse TLR4 (mTLR4) (Mus musculus, UniProt Q9QUK6); experiment: biochemical
[2] = biological target: soluble recombinant human TLR4 (hTLR4) (Homo sapiens, UniProt O00206); experiment: biochemical
Chain of soluble recombinant human TLR4 (hTLR4) (O00206 24-631 limits assumed): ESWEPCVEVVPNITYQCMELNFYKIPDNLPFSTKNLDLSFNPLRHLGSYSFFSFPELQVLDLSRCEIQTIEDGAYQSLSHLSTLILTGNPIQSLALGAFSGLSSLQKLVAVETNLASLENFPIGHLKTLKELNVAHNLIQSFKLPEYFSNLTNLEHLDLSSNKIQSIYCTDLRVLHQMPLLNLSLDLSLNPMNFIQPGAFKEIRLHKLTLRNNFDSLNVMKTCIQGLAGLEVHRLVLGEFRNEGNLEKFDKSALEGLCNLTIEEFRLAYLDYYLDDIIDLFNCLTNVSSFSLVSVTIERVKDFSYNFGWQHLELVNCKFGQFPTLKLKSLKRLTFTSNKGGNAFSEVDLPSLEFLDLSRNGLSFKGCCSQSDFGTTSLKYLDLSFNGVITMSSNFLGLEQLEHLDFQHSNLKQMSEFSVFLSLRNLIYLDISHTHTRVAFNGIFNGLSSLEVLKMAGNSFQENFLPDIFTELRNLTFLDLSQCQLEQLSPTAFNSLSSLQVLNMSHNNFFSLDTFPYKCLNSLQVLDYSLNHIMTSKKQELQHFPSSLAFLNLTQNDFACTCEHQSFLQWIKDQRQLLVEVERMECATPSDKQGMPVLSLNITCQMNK

Chain of soluble recombinant mouse TLR4 (mTLR4) (Q9QUK6 26-638 limits assumed): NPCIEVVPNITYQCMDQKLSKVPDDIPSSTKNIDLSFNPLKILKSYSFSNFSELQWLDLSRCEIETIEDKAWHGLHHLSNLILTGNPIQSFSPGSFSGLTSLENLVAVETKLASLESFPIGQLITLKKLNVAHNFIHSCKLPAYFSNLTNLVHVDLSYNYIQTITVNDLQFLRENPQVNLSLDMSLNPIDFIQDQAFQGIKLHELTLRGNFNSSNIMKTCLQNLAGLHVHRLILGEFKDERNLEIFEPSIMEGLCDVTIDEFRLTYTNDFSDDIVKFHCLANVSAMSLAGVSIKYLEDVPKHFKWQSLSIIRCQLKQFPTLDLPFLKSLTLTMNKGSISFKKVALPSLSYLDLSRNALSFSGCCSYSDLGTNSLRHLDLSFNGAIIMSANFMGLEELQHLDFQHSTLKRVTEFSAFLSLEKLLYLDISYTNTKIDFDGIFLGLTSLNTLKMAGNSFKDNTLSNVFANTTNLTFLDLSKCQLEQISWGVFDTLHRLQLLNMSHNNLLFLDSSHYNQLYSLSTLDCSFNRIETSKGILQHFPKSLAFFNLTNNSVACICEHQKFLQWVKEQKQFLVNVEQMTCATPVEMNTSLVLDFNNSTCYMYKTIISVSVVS

[NH2][Pt]([NH2])([Cl])[Cl] [cisplatin]
Kd [1]: 134 µM | Kd [2]: 100 µM
